Assay results reported in patent US11046657B2, “Pyrimidinone derivatives and uses thereof to neutralize the biological activity of chemokines” (Centre National de la Recherche Scientifique (CNRS), priority 2016, dated 2021).

Tests used:
[1] = test system: Balb/c mice administered LPS; assay: LPS-induced mouse model of neutrophilic airway inflammation (COPD); type: in vivo; conditions: 350 μmol/kg i.p. in 1% CMC, 2 h before LPS; lavage 24 h after LPS
Procedure: In vivo effect of a systemic treatment with chalcone-4 or compound (1) in a LPS-induced mouse model of neutrophilic airway inflammation. Balb/c mice were administered intranasally with LPS (1 μg, white block) or saline (control). Chalcone-4 (gray block) or compound (1) (black block) (350 μmol/kg each) suspended in 1% CMC or solvent (CMC alone) were administered intraperitoneally 2 h before LPS. Neutrophil recruitment is shown, inhibited by chalcone 4 and compound (1). Data points are means and bars are S.E.M. values of n=6 determinations.
The in vivo activity of compound (1) was tested in the murine model of neutrophilic airway inflammation induced by lipopolysaccharide (LPS) as previously described (Flacher et al, ACS Chem Biol. 2015, 10:2697-705)^14.
Briefly, Balb/c mice were administered intranasally with LPS (lipopolysaccharide from E. coli, O55B5, 1 μg, Sigma Aldrich) or saline. Treatments with (1) or Chalcone-4 (350 μmol/kg) in 1% CMC (carboxymethylcellulose) were administered by the intraperitoneal route 2 h before LPS instillation. Bronchoalveolar lavage was performed 24 h after LPS, and neutrophil, lymphocyte, eosinophil and macrophage numbers quantified.

SuHx Wistar rats = assay: SU-5416/Hypoxia rat model of pulmonary hypertension; type: in vivo; conditions: 100 mg/kg/day i.p.; for Pulmonary vascular remodeling: H&E and alpha-SMA staining of lung sections; for Total pulmonary vascular resistance (TPVR): curative protocol, vs vehicle-treated SuHx rats
Procedure: FIG. 6A: In vivo effect of chalcone-4 and compound (1) in the SU-5416 (20 mg/kg)/Hypoxia (SuHx) rat model of PH on total pulmonary vascular resistance, cardiac output and right ventricular hypertrophy. Male Wistar rats (100 g upon arrival in the laboratory; Janvier Labs, France) served as experimental subjects. SU-5416 (20 mg/kg) was injected subcutaneously and the rats were placed in normobaric hypoxia (10% FiO2) for 3 weeks for PH to develop, and were then left for 2 weeks in normoxia. Rats were treated either with chalcone-4 or compound (1) at a dose of 100 mg/kg i.p. as compared with vehicle-treated SuHx rats. In addition, a group of healthy rats with no PH were used as the control group (CTR). The total pulmonary vascular resistance (TPVR), cardiac output (CO), right ventricular hypertrophy (RVH) assessed by the Fulton index [right/(left+septum) ventricular weight] were obtained in CTR and SuHx rats treated with chalcone-4 and compound (1). The bar graph represents means SEM. *** p-value <0.001, **** p-value <0.0001 versus CTR rats. # p-value <0.05,### p-value <0.001 versus vehicle-treated SuHx rats.
The activity of compound (1) vs chalcone-4 was evaluated in an animal model of pulmonary hypertension (PH) (by convention, animal models are still referred to as having PH rather than PAH): the SU-5416 (20 mg/Kg)/Hypoxia rat model. Chalcone-4 and compound (1) (100 mg/kg/day) were prepared in carboxymethylcellulose (CMC 1% in saline) and administered I.P. Rats were treated for 3 weeks in a curative protocol, and were then left for 2 weeks in normoxia. An additional group of healthy rats with no PH was used as the control group (CTR).
PH was induced by a single subcutaneous injection of SU5416 (20 mg/kg) in Wistar rats, followed by a 3-week exposure to chronic hypoxia (10% FiO2). Right ventricular structure and function was assessed by echocardiography using the GE Vivid 9 ultrasound. Before treatment begins, echocardiography measurements of each rat have been performed to validate the presence of PH in animals (acceleration time/ejection time). Then, the rats were randomized by numbering the animals from 1 to 4 in each cage at the beginning of the study, and then looking at a random number table. Each rat has been treated by intraperitoneal administration. At the end of the treatment period, a right heart catheterization (RHC) was performed to determine the PH severity and the cardiac function.
Animals were anesthetized with isoflurane. A polyvinyl catheter was introduced into the right jugular vein and pushed through the right ventricle into the pulmonary artery. Cardiac output in rats was measured using the thermodilution method.
After measurement of hemodynamic parameters, the thorax was opened and the left lung immediately removed and frozen. The right lung was fixed in the distended state with formalin buffer. The right ventricular hypertrophy assessed by the Fulton index [weight ratio of right ventricle (RV) and (left ventricle (LV)+septum)] and the percentage of wall thickness [(2× medial wall thickness/external diameter)×100] and of muscularized vessels were determined as previously described^21.
Histological sections were stained with hematoxylin and eosin, and immunohistochemistry for alpha-smooth muscle actin was performed as previously described^1′. Images were taken with a microscope Nikon Eclipse 80i and NIS-Elements BR 2.30 software.

[2] = test system: Balb/c mice sensitized to ovalbumin; assay: 8-day murine model of allergic eosinophilic airway inflammation; type: in vivo, mouse; conditions: for IC50 on eosinophil recruitment: intranasal, 2 h before each challenge, in PBS/Cdx, bronchoalveolar lavage 24 h after last challenge
Procedure: In vivo dose-response effect of a topical treatment with chalcone-4 and compound (1) of formula (I) in an 8-day mouse model of allergic eosinophilic airway inflammation. Balb/c mice were sensitized to ovalbumin (OVA, 50 μg) in the presence of 2 mg alum (IP. injection on days 0, 1 and 2) and challenged with OVA (10 μg) or saline (IN.) on days 6, 7 and 8. Increasing doses of chalcone-4 (gray line) or compound (1) (black line) solubilized in 10% hydroxypropyl-B-cyclodextrine (Cdx) were administered by the intranasal route 2 h before each challenge. Bronchoalveolar lavage was performed 24 h after the last challenge, and inflammatory cells including eosinophils counted. The percentage of inhibition of eosinophil recruitment is shown. Data points are means and bars are S.E.M. values of n=6 determinations.
The in vivo activity of compound (1) was tested in the 8-day murine model of allergic eosinophilic airway inflammation previously described^13.
Briefly, Balb/c mice were sensitized to ovalbumin (OVA) and challenged 3 times with OVA or saline at 24 h interval. Treatments with each compound (300 nmol/kg in 10% PBS/Cdx) were administered by the intranasal route 2 h before each challenge. Bronchoalveolar lavage was performed 24 h after the last challenge, and eosinophil, macrophage, neutrophil and lymphocyte numbers quantified.
Using the same protocol, the dose-response of compound (1) and chalcone-4 was evaluated on eosinophil recruitment after intranasal administration (FIG. 1).

[3] = vs SuHx rats treated with vehicle or chalcone-4

Row | Structure (SMILES) | Inhibition of neutrophil recruitment [1] | Pulmonary vascular remodeling (SuHx Wistar rats) | Total pulmonary vascular resistance (TPVR) (SuHx Wistar rats) | IC50 on eosinophil recruitment [2] | Cardiac output (SuHx Wistar rats; [3]) | Fulton index (right ventricular hypertrophy) (SuHx Wistar rats; [3]) | Recruitment of eosinophils ([2]; 300 nmol/kg, intranasal route, n=6)
1 | COc1cc(/C=C/C(=O)c2ccc(Cl)cc2)ccc1O [Chalcone-4, (E)-1-(4-Chlorophenyl)-3-(4-hydroxy-3-methoxyphenyl)prop-2-en-1-one, reference compound] | 30% | substantially attenuated the pulmonary vascular remodeling | substantial decrease | higher than 500 nmol/kg | – | – | –
2 | COc1cc(-c2cc(-c3ccc(Cl)cc3)nc(=O)[nH]2)ccc1O [compound (1), 4-(4-Chlorophenyl)-6-(4-hydroxy-3-methoxyphenyl)pyrimidin-2(1H)-one] | 43% | substantially attenuated the pulmonary vascular remodeling | substantial decrease | 300 nmol/kg | substantial increase | significant decrease | inhibits the recruitment of eosinophils
